Experimental data reported in patent US6218406A, “Farnesyl transferase inhibitors, their preparation, the pharmaceutical compositions which contain them and their use in the preparation of medicaments” (Aventis Pharma S.A., priority 1996, dated 2001).
Like-named read-outs stand apart in the source and are kept apart here.

Assays:
[1] = biological target: farnesyl transferase (Homo sapiens, UniProt P49354+P49356); assay: Farnesyl transferase inhibition, [3H]-farnesylation of biotinylated K-ras C-terminal peptide (SPA assay); type: biochemical; conditions: 60 min at 37° C., mean of two IC50 values
[2] = test system: HCT116 human colic carcinoma line; assay: In vivo antitumour test, human carcinoma grafted subcutaneously into mice; conditions: 400 mg/kg/adm., orally
Description: The influence of the compounds according to the invention, administered to mice, on the growth of carcinomas of human origin grafted subcutaneously into these mice was studied.
On day 0 of the experiment, the mice received a tumour fragment (30-60 mg) bilaterally under the skin using a trocar. The bilateral implantation of the tumours ensured a more uniform tumour weight per mouse and thus made it possible to reduce the number of animals per group. The mice were then divided into the different treated and untreated groups.
The product was suspended in an aqueous solution at concentrations that ranged from […], corresponding to doses of 0.1 to 10,000 mg/kg.
The treatments or their possible excipient were administered every day orally, at a maximum volume of 0.2 ml, the duration of administration depending on the doubling time of the tumour.
The tumours were measured 2 to 3 times per week, using a calliper rule, according to two measurements in mm, which were subsequently converted into tumour weight according to the following formula:
tumour weight (mg)=Length (mm)×width^2 (mm^2)/2
An active product was a product which made it possible to limit the growth of the tumour after it had been administered.

[3] = K-Ras substrate, read-out: In vitro inhibitory activity (K-Ras) IC50

C=C(C(=O)N1C[C@H]2[C@@]3(c4ccc(C)cc4)CC[C@H](c4ccccc43)[C@@]2(C(=O)O)C1)c1ccccc1OC (single isomer, unassigned) [Example 3, dextrorotatory enantiomer of (3aRS,4SR,9RS,9aRS)-4,9-ethano-2-[2-(2-methoxyphenyl)propenoyl]-9-(4-methylphenyl)-2,3,3a,4,9,9a-hexahydro-1H-benzo[f]isoindole-3a-carboxylic acid]
IC50 [1, 3]: 28 nM
Tumour stabilization [2]: Tumour stabilization

C=C(C(=O)N1C[C@@H]2[C@]3(c4cccc(F)c4)CC[C@@H](c4ccccc43)[C@]2(C(=O)OC)C1)c1ccccc1OC (racemic) [Example 85, methyl (3aRS,4SR,9SR,9aRS)-4,9-ethano-9-(3-fluorophenyl)-2-[2-(2-methoxyphenyl)propenoyl]-2,3,3a,4,9,9a-hexahydro-1H-benzo[f]isoindole-3a-carboxylate]
IC50 [1, 3]: 508 nM

C=C(C(=O)N1C[C@@H]2[C@]3(c4ccc(C)cc4)CC[C@@H](c4ccccc43)[C@]2(C(=O)NOC)C1)c1ccccc1OC (racemic) [Example 21, Methyl (3aRS,4SR,9SR,9aRS)-4,9-ethano-2-[2-(2-methoxyphenyl)propenoyl]-9-(4-methylphenyl)-2,3,3a,4,9,9a-hexahydro-1H-benzo[f]isoindole-3a-hydroxamate]
IC50 [1, 3]: 111 nM

C=C(C(=O)N1C[C@H]2[C@@]3(c4ccc(C)cc4)CC[C@H](c4c(OC)cccc43)[C@@]2(C(=O)O)C1)c1ccccc1OC (single isomer, unassigned) [Example 100, Dextrorotatory Enantiomer of (3aRS,4SR,9SR,9aRS)-4,9-ethano-5-methoxy-2-[2-(2-methoxyphenyl)propenoyl]-9-(4-methylphenyl)-2,3,3a,4,9,9a-hexahydro-1H-benzo[f]isoindole-3a-carboxylic Acid]
IC50 [1, 3]: < 19 nM

C=C(C(=O)N1C[C@@H]2[C@]3(c4ccc(F)cc4)CC[C@@H](c4ccccc43)[C@]2(C(=O)O)C1)c1ccccc1OC (racemic) [Example 65, (3aRS,4SR,9SR,9aRS)-4,9-ethano-9-(4-fluorophenyl)-2-[2-(2-methoxyphenyl)propenoyl]-2,3,3a,4,9,9a-hexahydro-1H-benzo[f]isoindole-3a-carboxylic acid]
IC50 [1, 3]: 40 nM

C=C(C(=O)N1C[C@H]2[C@@]3(c4ccc(C)s4)CC[C@@H](c4ccccc43)[C@]2(C(=O)O)C1)c1ccccc1OC (racemic) [Example 48, (3aRS,4SR,9SR,9aRS)-4,9-ethano-2-[2-(2-methoxyphenyl)propenoyl]-9-(5-methyl-2-thienyl)-2,3,3a,4,9,9a-hexahydro-1H-benzo[f]isoindole-3a-carboxylic Acid]
IC50 ([1]; In vitro inhibitory activity (K-Ras) IC50, K-Ras substrate): 95 nM

C=C(C(=O)N1C[C@@H]2[C@]3(c4ccc(C(F)(F)F)cc4)CC[C@@H](c4ccccc43)[C@]2(C(=O)OC)C1)c1ccccc1OC (racemic) [Example 39, methyl (3aRS,4SR,9SR,9aRS)-4,9-ethano-2-[2-(2-methoxyphenyl)propenoyl]-9-[4-(trifluoromethyl)phenyl]-2,3,3a,4,9,9a-hexahydro-1H-benzo[f]isoindole-3a-carboxylate]
IC50 [1, 3]: 273 nM

C=C(C(=O)N1C[C@H]2[C@@]3(c4ccc(C)cc4)CC[C@H](c4ccccc43)[C@@]2(C(=O)NN(C)c2ccccc2)C1)c1ccccc1OC (relative stereo) [Example 28, (3aRS,4SR,9SR,9aRS)-4,9-ethano-2-[2-(2-methoxyphenyl)propenoyl]-9-(4-methylphenyl)-2,3,3a,4,9,9a-hexahydro-1H-benzo[f]isoindole-3a-N'-methyl-N'-phenylcarbohydrazide]
IC50 [1, 3]: 54 nM

C=C(C(=O)N1C[C@@H]2[C@]3(c4ccc(OC)c(O)c4)CC[C@@H](c4ccccc43)[C@]2(C(=O)O)C1)c1ccccc1OC (racemic) [Example 97, (3aRS,4SR,9SR,9aRS)-4,9-ethano-9-(3-hydroxy-4-methoxyphenyl)-2-[2-(2-methoxyphenyl)propenoyl]-2,3,3a,4,9,9a-hexahydro-1H-benzo[f]isoindole-3a-carboxylic Acid]
IC50 [1, 3]: 40 nM
